The record followed here is ChEMBL document CHEMBL1133825, “3-D-QSAR/CoMFA and recognition models of benzimidazole derivatives at the 5-HT(4) receptor” (Bioorg Med Chem Lett, 2001).

The target of assay [1] is T1, 5-hydroxytryptamine receptor 4 (Rattus norvegicus, UniProt Q62758). As to the kind of experiment: In vitro binding affinity to 5-hydroxytryptamine 4 receptor in rat striatum membrane. The class given is cell membranes.
Assay [2] deals with T1, 5-hydroxytryptamine receptor 4. In words: pKi against 5-hydroxytryptamine 4 receptor in rat striatum membrane. In kind it is cell membranes.

T1 sequence (Q62758 whole entry): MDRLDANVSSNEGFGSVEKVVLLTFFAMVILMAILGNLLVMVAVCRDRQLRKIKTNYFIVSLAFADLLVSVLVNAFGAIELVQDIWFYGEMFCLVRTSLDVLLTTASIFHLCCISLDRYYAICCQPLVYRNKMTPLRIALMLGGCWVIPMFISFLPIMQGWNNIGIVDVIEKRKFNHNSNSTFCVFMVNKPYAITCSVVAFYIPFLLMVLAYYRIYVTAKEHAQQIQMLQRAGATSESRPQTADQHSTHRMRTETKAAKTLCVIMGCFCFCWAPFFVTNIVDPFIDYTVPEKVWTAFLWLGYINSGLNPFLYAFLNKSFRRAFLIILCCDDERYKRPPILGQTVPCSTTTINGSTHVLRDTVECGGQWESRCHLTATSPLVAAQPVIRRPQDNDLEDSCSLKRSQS

Turning to `CS(=O)(=O)NCCN1CCC(COC(=O)c2cccc3nc[nH]c23)CC1`, the Ki in assay [1] was 26.1 nM; in assay [2], 26.3 nM.

In the case of `CS(=O)(=O)NCCN1CCC(CNC(=O)c2cc(Cl)cc3[nH]cnc23)CC1`, the Ki in assay [1] and in assay [2] was 0.11 nM in each case.

As for `CCCCN1CCC(CNC(=O)c2cc(Br)c(N)c3nc[nH]c23)CC1`, the Ki is 27.8 nM in assay [1] and 27.5 nM in assay [2].

Consider `CN1CCC(OC(=O)c2cccc3nc[nH]c23)CC1`, for which the Ki in assay [1] and in assay [2] was greater than 10000 nM throughout.

For `CC(C)CN1CCC(CNC(=O)c2cc(Cl)cc3c2ncn3C)CC1`, the results for the Ki in assay [1] and in assay [2] were 2.2 nM and 2.19 nM, respectively.

Take `CCCCN1CCC(COC(=O)c2cccc3nc[nH]c23)CC1`: the Ki in assay [1] was 24.6 nM; in assay [2] it was 24.5 nM.

For `CCN1CCC(NC(=O)c2cccc3[nH]cnc23)CC1`, the Ki in assay [1] and in assay [2] was greater than 1000 nM in each case.

Consider `CCCCN1CCC(NC(=O)c2cccc3nc[nH]c23)CC1`, for which the results for the Ki in assay [1] and in assay [2] were 290 nM and 288 nM, respectively.

Turning to `CS(=O)(=O)NCCN1CCC(COC(=O)c2cc(Cl)cc3[nH]cnc23)CC1`, the Ki in assay [1] is 2.3 nM; in assay [2], 2.29 nM.

In the case of `CCCCN1CCC(CNC(=O)c2cc(Cl)c(N)c3[nH]cnc23)CC1`, the Ki in assay [1] and in assay [2] was 22.4 nM throughout.

Regarding `CC(C)CN1CCC(CNC(=O)c2cc(Cl)cc3[nH]cnc23)CC1`, the Ki was 0.29 nM in assay [1] and 0.288 nM in assay [2].

Consider `CCCCN1CCC(CNC(=O)c2cc(Cl)c([N+](=O)[O-])c3nc[nH]c23)CC1`, for which the Ki in assay [1] was 44.6 nM; in assay [2], 44.7 nM.

For `CCCCN1CCC(CNC(=O)c2ccc(N)c3[nH]cnc23)CC1`, the Ki in assay [1] and in assay [2] was 115 nM throughout.

For `CC(C)CN1CCC(CNC(=O)c2cc(Cl)cc3c2ncn3Cc2ccccc2)CC1`, the Ki in assay [1] and in assay [2] was 69.2 nM in each case.

With `CCCN1CCC(NC(=O)c2cccc3nc[nH]c23)CC1`, the Ki in assay [1] and in assay [2] was greater than 1000 nM each time.

As for `CCCCN1CCC(CNC(=O)c2cc(Br)c([N+](=O)[O-])c3[nH]cnc23)CC1`, the figures for the Ki in assay [1] and in assay [2] were 48.2 nM and 47.9 nM, respectively.

Regarding `CCCCN1CCC(COC(=O)c2cc(Cl)cc3[nH]cnc23)CC1`, the values for the Ki in assay [1] and in assay [2] were 2.9 nM and 2.88 nM, respectively.

As to `CCCCCN1CCC(CNC(=O)c2cc(Cl)cc3[nH]cnc23)CC1`, the Ki was 0.54 nM in assay [1] and 0.537 nM in assay [2].

As for `CCCCN1CCC(CNC(=O)c2cccc3[nH]cnc23)CC1`, the results for the Ki in assay [1] and in assay [2] were 13.7 nM and 13.8 nM, respectively.

In the case of `CCCCN1CCC(CNC(=O)c2cc(Br)cc3[nH]cnc23)CC1`, the Ki in assay [1] was 0.64 nM; in assay [2], 0.646 nM.

As to `CCCCN1CCC(CNC(=O)c2cc(Cl)cc3[nH]cnc23)CC1`, the Ki is 0.32 nM in assay [1] and 0.324 nM in assay [2].

With `CS(=O)(=O)NCCN1CCC(CNC(=O)c2cccc3[nH]cnc23)CC1`, the Ki in assay [1] is 11.4 nM; in assay [2], 11.5 nM.
